Experimental data as given in PubChem BioAssay AID330 (DTP/NCI, 2004).
Where “and” joins values, the source holds several entries; their conditions need not be identical. Equal values may be shown once. Toxic doses and inconclusive results are not listed. The calls were made as follows: active = survival T/C of 150% or more; inactive = T/C below 125% in these data.

Tested on: P388 leukemia ip, CD2F1 mice, survival T/C
Assay: NCI In Vivo Anticancer Drug Screen. Data for tumor model P388 Leukemia (intraperitoneal) in CD2F1 (CDF1) mice
Details: endpoint: median survival time, higher = longer survival
Procedure, shortened: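 Mice carrying the transplanted tumor received test compound or vehicle. Survival was recorded in each group, and the value is the treated-group measurement divided by that of the vehicle-treated control group.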

[1] = dose: 6.25 mg/kg/injection, schedule: Q01DX009 (ip), vehicle: Klucel (hydroxypropylcellulose) (HPC)
[2] = dose: 12.5 mg/kg/injection, schedule: Q01DX009 (ip), vehicle: Klucel (hydroxypropylcellulose) (HPC)
[3] = dose: 25.0 mg/kg/injection, schedule: Q01DX005 (ip), vehicle: saline with Tween-80
[4] = dose: 50.0 mg/kg/injection, schedule: Q01DX005 (ip), vehicle: saline with Tween-80
[5] = dose: 50.0 mg/kg/injection, schedule: Q01DX005 (ip), vehicle: Klucel (hydroxypropylcellulose) (HPC)
[6] = dose: 100.0 mg/kg/injection, schedule: Q01DX005 (ip), vehicle: Klucel (hydroxypropylcellulose) (HPC)
[7] = dose: 200.0 mg/kg/injection, schedule: Q01DX005 (ip), vehicle: Klucel (hydroxypropylcellulose) (HPC)
[8] = dose: 60.0 mg/kg/injection, schedule: Q01DX005 (ip), vehicle: Klucel (hydroxypropylcellulose) (HPC)
[9] = dose: 120.0 mg/kg/injection, schedule: Q01DX005 (ip), vehicle: Klucel (hydroxypropylcellulose) (HPC)
[10] = dose: 240.0 mg/kg/injection, schedule: Q01DX005 (ip), vehicle: Klucel (hydroxypropylcellulose) (HPC)

Measured: T/C

CN(C)c1ccc2nc(/C=N/NC(N)=S)ccc2c1
inactive: dose: 100.0 mg/kg/injection, schedule: Q04DX002 (ip), vehicle: distilled water + Tween-80 + alcohol 101 % of control | dose: 200.0 mg/kg/injection, schedule: Q04DX002 (ip), vehicle: distilled water + Tween-80 + alcohol 92 % of control

COc1cc2c(c(OC)c1OC)-c1ccc(NCc3ccccc3)c(=O)cc1[C@@H](NC(C)=O)CC2
inactive: dose: 0.78 mg/kg/injection, schedule: Q01DX009 (ip), vehicle: Klucel (hydroxypropylcellulose) (HPC) 103 % of control and 104 % of control and 105 % of control | dose: 1.56 mg/kg/injection, schedule: Q01DX009 (ip), vehicle: Klucel (hydroxypropylcellulose) (HPC) 98 % of control and 101 % of control and 104 % of control | dose: 3.12 mg/kg/injection, schedule: Q01DX009 (ip), vehicle: Klucel (hydroxypropylcellulose) (HPC) 105 % of control and 106 % of control and 117 % of control | [1] 117 % of control | [2] 98 % of control and 117 % of control

CC(C)c1ccc(C(CC(=O)C(C)(C)C)C(C(=O)O)c2ccc([N+](=O)[O-])cc2)cc1 (stereo not given)
inactive: dose: 50.0 mg/kg/injection, schedule: Q01DX009 (ip), vehicle: Klucel (hydroxypropylcellulose) (HPC) 109 % of control | dose: 100.0 mg/kg/injection, schedule: Q01DX009 (ip), vehicle: Klucel (hydroxypropylcellulose) (HPC) 108 % of control

Nc1ncc(Cl)c2ccccc12
inactive: dose: 6.25 mg/kg/injection, schedule: Q01DX005 (ip), vehicle: saline with Tween-80 99 % of control | dose: 12.5 mg/kg/injection, schedule: Q01DX005 (ip), vehicle: saline with Tween-80 97 % of control | [3] 89 % of control | [4] 101 % of control

CCOC(=O)c1c[nH]c2cc(Cl)ccc2c1=O
inactive: dose: 50.0 mg/kg/injection, schedule: Q01DX009 (ip), vehicle: saline with Tween-80 93 % of control | dose: 100.0 mg/kg/injection, schedule: Q01DX009 (ip), vehicle: saline with Tween-80 98 % of control | dose: 200.0 mg/kg/injection, schedule: Q01DX009 (ip), vehicle: saline with Tween-80 93 % of control

O=C1NC(=O)[C@@]2(CCOc3ccc(F)cc32)N1
inactive: [5] 95 % of control | [6] 100 % of control | [7] 100 % of control

CON(C)c1nc(N(C)C)nc(N(C)C)n1
inactive: dose: 50.0 mg/kg/injection, schedule: Q01DX009 (ip), vehicle: saline 91 % of control | dose: 100.0 mg/kg/injection, schedule: Q01DX009 (ip), vehicle: saline 98 % of control | dose: 200.0 mg/kg/injection, schedule: Q01DX009 (ip), vehicle: saline 96 % of control

BrCCC[n+]1ccc2ccccc2c1-c1nccc2ccccc12
inactive: dose: 3.12 mg/kg/injection, schedule: Q01DX001 (ip), vehicle: saline 104 % of control | dose: 6.25 mg/kg/injection, schedule: Q01DX001 (ip), vehicle: saline 98 % of control | dose: 12.5 mg/kg/injection, schedule: Q01DX001 (ip), vehicle: saline 101 % of control and 115 % of control

NC(=O)c1nc2c(N)nc(-c3ccccc3)nc2nc1N
inactive: dose: 150.0 mg/kg/injection, schedule: Q01DX009 (ip), vehicle: saline with Tween-80 94 % of control | dose: 300.0 mg/kg/injection, schedule: Q01DX009 (ip), vehicle: saline with Tween-80 95 % of control

Nc1cc2cccc[n+]2c2ccccc12
inactive: dose: 3.75 mg/kg/injection, schedule: Q01DX005 (ip), vehicle: saline 110 % of control | dose: 7.5 mg/kg/injection, schedule: Q01DX005 (ip), vehicle: saline 106 % of control | dose: 15.0 mg/kg/injection, schedule: Q01DX005 (ip), vehicle: saline 120 % of control

CCOC(=O)NC(C(=O)N(C(=O)NC1CCCCC1)C1CCCCC1)C(C)C (stereo not given)
inactive: [5] 100 % of control | [6] 95 % of control | [7] 90 % of control

CC(=O)N(O)C(C)=O
inactive: dose: 50.0 mg/kg/injection, schedule: Q01DX005 (ip), vehicle: saline 100 % of control | dose: 100.0 mg/kg/injection, schedule: Q01DX005 (ip), vehicle: saline 104 % of control | dose: 200.0 mg/kg/injection, schedule: Q01DX005 (ip), vehicle: saline 107 % of control

Fc1ccc(CSC(=S)Nc2cccc(C(F)(F)F)c2)cc1
inactive: dose: 50.0 mg/kg/injection, schedule: Q01DX009 (ip), vehicle: suspension in saline 97 % of control | dose: 100.0 mg/kg/injection, schedule: Q01DX009 (ip), vehicle: suspension in saline 90 % of control

CC1(C)OC(=O)C=C[C@]2(C)[C@H]3CC[C@@]4(C)[C@H](c5ccoc5)C[C@H]5O[C@]54[C@]3(C)C(=O)[C@H](O)[C@@H]12
inactive: dose: 1.25 mg/kg/injection, schedule: Q04DX003 (ip), vehicle: Klucel (hydroxypropylcellulose) (HPC) 91 % of control | dose: 2.5 mg/kg/injection, schedule: Q04DX003 (ip), vehicle: Klucel (hydroxypropylcellulose) (HPC) 96 % of control | dose: 5.0 mg/kg/injection, schedule: Q04DX003 (ip), vehicle: Klucel (hydroxypropylcellulose) (HPC) 94 % of control | dose: 10.0 mg/kg/injection, schedule: Q04DX003 (ip), vehicle: Klucel (hydroxypropylcellulose) (HPC) 98 % of control

CC1C=CC(C)S(=O)N1C(=O)Cc1ccccc1 (stereo not given)
inactive: [8] 100 % of control | [9] 106 % of control | [10] 113 % of control

O=c1[nH]c2ccccc2c2nc(-c3ccccc3)c3ccccc3c12
inactive: [8] 96 % of control | [9] 86 % of control | [10] 91 % of control

N=c1c2ncn(C3OC(CO)C(O)C3O)c2ncn1N (stereo not given)
inactive: dose: 25.0 mg/kg/injection, schedule: Q01DX005 (ip), vehicle: water 110 % of control | dose: 50.0 mg/kg/injection, schedule: Q01DX005 (ip), vehicle: water 107 % of control | dose: 100.0 mg/kg/injection, schedule: Q01DX005 (ip), vehicle: water 105 % of control | dose: 200.0 mg/kg/injection, schedule: Q01DX005 (ip), vehicle: water 98 % of control | dose: 400.0 mg/kg/injection, schedule: Q01DX005 (ip), vehicle: water 108 % of control

O=C(N/N=C/c1cc(Cl)cc(Cl)c1[O-])c1ccccc1.O=C(N/N=C/c1cc(Cl)cc(Cl)c1[O-])c1ccccc1.[Zn+2]
inactive: dose: 100.0 mg/kg/injection, schedule: Q01DX001 (ip), vehicle: saline with Tween-80 92 % of control | dose: 200.0 mg/kg/injection, schedule: Q01DX001 (ip), vehicle: saline with Tween-80 94 % of control | dose: 400.0 mg/kg/injection, schedule: Q01DX001 (ip), vehicle: saline with Tween-80 92 % of control

CCc1c(-c2ccccc2)n[nH]c1-c1[nH]nc(-c2ccccc2)c1CC
inactive: [8] 96 % of control | [9] 96 % of control | [10] 96 % of control

CCc1cccc(CC)c1N1C(=O)C(=O)C(C(C)=O)C1=O (stereo not given)
inactive: [3] 101 % of control | [4] 99 % of control and 101 % of control | dose: 100.0 mg/kg/injection, schedule: Q01DX005 (ip), vehicle: saline with Tween-80 101 % of control | dose: 200.0 mg/kg/injection, schedule: Q01DX005 (ip), vehicle: saline with Tween-80 89 % of control

CC[N+](C)(C)c1nc(N(C)C)nc(N(C)C)n1
inactive: dose: 6.0 mg/kg/injection, schedule: Q01DX005 (ip), vehicle: saline 108 % of control | dose: 12.0 mg/kg/injection, schedule: Q01DX005 (ip), vehicle: saline 118 % of control

COC(C)(C)O/N=C(\C[P+](c1ccccc1)(c1ccccc1)c1ccccc1)c1ccc(Cl)cc1
inactive: [1] 109 % of control | [2] 106 % of control | dose: 25.0 mg/kg/injection, schedule: Q01DX009 (ip), vehicle: Klucel (hydroxypropylcellulose) (HPC) 99 % of control

CC(=O)CCC(=O)c1ccoc1
inactive: dose: 3.12 mg/kg/injection, schedule: Q01DX005 (ip), vehicle: Klucel (hydroxypropylcellulose) (HPC) 94 % of control | dose: 6.25 mg/kg/injection, schedule: Q01DX005 (ip), vehicle: Klucel (hydroxypropylcellulose) (HPC) 103 % of control | dose: 12.5 mg/kg/injection, schedule: Q01DX005 (ip), vehicle: Klucel (hydroxypropylcellulose) (HPC) 100 % of control | dose: 25.0 mg/kg/injection, schedule: Q01DX005 (ip), vehicle: Klucel (hydroxypropylcellulose) (HPC) 102 % of control and 95 % of control

O=C1c2ccccc2C(=O)N1CCP(=O)(c1ccccc1)c1ccccc1
inactive: dose: 12.5 mg/kg/injection, schedule: Q01DX009 (ip), vehicle: other 98 % of control | dose: 25.0 mg/kg/injection, schedule: Q01DX009 (ip), vehicle: other 106 % of control | dose: 50.0 mg/kg/injection, schedule: Q01DX009 (ip), vehicle: other 98 % of control | dose: 100.0 mg/kg/injection, schedule: Q01DX009 (ip), vehicle: other 91 % of control | dose: 200.0 mg/kg/injection, schedule: Q01DX009 (ip), vehicle: other 91 % of control

COC(=O)c1cc(=O)nc(N/N=C/c2ccccc2O)s1
inactive: [5] 98 % of control | [6] 100 % of control | [7] 108 % of control
